Reference: US5863899A (priority 1994, dated 1999)
Read-outs that look alike come from different tables or passages of the source. Square brackets hold non-standard residues; d marks the D form. Peptide text beside a SMILES is read from it. * marks the point of attachment. X13 = COc1ccc2c3c1O[C@H]1C(NC(=O)CNC(=O)CCSC4CC(=O)N(CCCCCCN5C(=O)CC(*)C5=O)C4=O)CC[C@@]4(O)[C@@H](C2)N(C)CC[C@]314; X9 = COc1ccc2c3c1O[C@H]1C(NCCSC4CC(=O)N(CCCCCCN5C(=O)CC(*)C5=O)C4=O)CC[C@@]4(O)[C@@H](C2)N(C)CC[C@]314; X1 = CN1CC[C@]23c4c5ccc(O)c4O[C@H]2C(NCCSC2CC(=O)N(CCCCCCN4C(=O)CC(*)C4=O)C2=O)CC[C@@]3(O)[C@H]1C5; X4 = CC(C)(C)c1ccc(C(C)(C)C(=O)Oc2ccc(S(=O)(=O)CCCC(=O)OCCCCCCN3C(=O)CC(*)C3=O)cc2)cc1; X7 = COc1ccc2c(c1)c(CC(=O)OCCCCCCN1C(=O)CC(*)C1=O)c(C)n2C(=O)c1ccc(Cl)cc1; Oic = O=C(O)[C@@H]1C[C@@H]2CCCC[C@@H]2N1; Hyp = O=C(O)[C@@H]1C[C@@H](O)CN1; dTic = O=C(O)[C@H]1Cc2ccccc2CN1; 2Thi = N[C@@H](Cc1cccs1)C(=O)O; X20 = O=C1CC(*)C(=O)N1CCCCCCO

How the values were obtained:
BK2-receptor [1] = molecular target: T1, BK2-receptor (Rattus norvegicus, UniProt P25023); test: cell-based
T1 sequence (P25023 1-396): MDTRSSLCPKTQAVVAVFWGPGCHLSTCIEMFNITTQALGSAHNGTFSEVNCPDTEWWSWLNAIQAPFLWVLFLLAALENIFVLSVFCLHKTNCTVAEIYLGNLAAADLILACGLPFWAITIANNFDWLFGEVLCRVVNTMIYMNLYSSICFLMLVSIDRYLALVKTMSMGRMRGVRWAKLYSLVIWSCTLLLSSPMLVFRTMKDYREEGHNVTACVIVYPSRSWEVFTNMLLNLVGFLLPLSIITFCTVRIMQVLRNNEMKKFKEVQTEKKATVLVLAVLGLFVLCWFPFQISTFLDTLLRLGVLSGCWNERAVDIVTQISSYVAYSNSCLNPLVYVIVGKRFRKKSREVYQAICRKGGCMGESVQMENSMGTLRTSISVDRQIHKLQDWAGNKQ

BK2-receptor [2] = molecular target: T1, BK2-receptor
mu-opiate receptor = mu-opiate receptor (Cavia porcellus, UniProt A0ACM8Q262); test: electrically stimulated guinea pig ileum assay; type: cell-based; conditions: in vitro mu-opiate receptor agonist activity
Sequence of mu-opiate receptor (A0ACM8Q262 1-400): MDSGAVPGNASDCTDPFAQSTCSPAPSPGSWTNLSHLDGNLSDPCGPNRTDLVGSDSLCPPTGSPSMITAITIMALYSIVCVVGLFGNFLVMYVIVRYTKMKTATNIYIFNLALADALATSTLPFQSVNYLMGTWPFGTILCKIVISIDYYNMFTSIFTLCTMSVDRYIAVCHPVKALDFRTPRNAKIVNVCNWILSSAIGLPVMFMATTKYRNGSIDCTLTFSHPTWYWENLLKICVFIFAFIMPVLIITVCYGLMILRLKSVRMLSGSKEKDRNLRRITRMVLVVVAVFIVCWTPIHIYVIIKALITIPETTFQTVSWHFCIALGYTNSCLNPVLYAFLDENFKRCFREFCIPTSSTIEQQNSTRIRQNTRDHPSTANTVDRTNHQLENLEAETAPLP

[3] = system: mice injected in the hind limb foot pad with formalin; test: mouse formalin test (model of inflammatory and neurogenic pain); type: in vivo; conditions: for narcotic / behavioral effects in the formalin test: oxymorphone: highest doses 0.9 and 3.0 umoles/kg, CP-0494: over several hours
Experimental: In order to test the activity of these compounds in vivo, a model of inflammatory and neurogenic pain was used. This model measures the behavioral responses of mice injected in the hind limb foot pad with 50 ul of formalin. Control mice (open circles) show a characteristic bi-phasic response to the injected formalin wherein there is a short lasting initial response followed by a quiescent period which is then followed by a sustained period of hind limb licking. The licking behavior is interpreted to mean that the limb is irritated and painful. The greater the time spent licking, the more painful the stimulus.

[4] = molecular target: T2, purified human neutrophil elastase (HNE) (Homo sapiens, UniProt P08246); test: neutrophil elastase inhibition with chromogenic substrate MOS-AAPV-pNA; type: biochemical
T2 sequence (P08246 30-247 limits assumed): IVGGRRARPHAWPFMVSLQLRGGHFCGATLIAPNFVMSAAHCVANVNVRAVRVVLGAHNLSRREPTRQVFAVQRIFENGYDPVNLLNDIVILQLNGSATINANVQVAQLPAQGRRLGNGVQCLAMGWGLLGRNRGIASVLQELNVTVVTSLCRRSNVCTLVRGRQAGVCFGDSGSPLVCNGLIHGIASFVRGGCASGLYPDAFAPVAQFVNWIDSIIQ

[5] = system: rat lung parenchymal strips (cyclooxygenase dependent contraction); test: rat lung parenchymal strips challenged with arachidonic acid; type: cell-based; conditions: contraction in response to exogenously applied arachidonic acid
Text: As mentioned previously, for the COI to work it may need to be dissociated from the BKAn so as to allow for its intracellular penetration. Therefore, in order to evaluate the functional activity of a BKAn/COI heterodimer, CP-0460 was exposed to rat lung parenchymal strips which were then challenged with arachidonic acid. This tissue is known to contain both non-specific esterase activity as well as to convert arachidonic acid to thromboxane (via a cyclooxygenase dependent pathway) which is then ultimately responsible for the smooth muscle contraction observed in this assay.

in vitro = test: in vitro
Experimental: Unfortunately, there are no established animal models that can be employed to assess combined BKAn and NEI activity in vivo. Therefore, in order to assess the potential for in vivo hydrolysis of the intact heterodimer, an in vitro "surrogate" system was employed wherein the parent heterodimer (CP-0502) was incubated with human plasma and the resulting metabolites analyzed by reverse phase HPLC.
CP-0502 was added to freshly obtained normal human plasma and allowed to incubate at 37° C. for varying amounts of time. At the designated time the samples were treated with acidified (0.1N HCl) acetonitrile in order to precipitate the plasma proteins. Aliquots (75 ul) of the supernatents were then analyzed on a Vydac C-18 reverse phase HPLC column using 24% to 80% acetonitrile gradient in 0.1% TFA. The eluent was monitored at 214 nm.

[6] = freshly obtained normal human plasma; conditions: 37° C., up to 180 minutes
[7] = Table II, MOS-AAPV-pNA 0.5 mM, pH 7.5, 25 C

N=C(N)NCCC[C@@H](N)C(=O)N[C@@H](CCCNC(=N)N)C(=O)N1CCC[C@H]1C(=O)N1C[C@H](O)C[C@H]1C(=O)NCC(=O)N[C@@H](Cc1cccs1)C(=O)N[C@@H](CS)C(=O)N1Cc2ccccc2C[C@@H]1C(=O)N1[C@H](C(=O)N[C@@H](CCCNC(=N)N)C(=O)O)C[C@@H]2CCCC[C@@H]21 [CP-0347, D R-R-P-J-G-Thi-C-D Tic-Oic-R] (H-[dR]RP[Hyp]G[2Thi]C[dTic][Oic]R-OH)
Kb (BK2-receptor [1]): 0.316 nM

COc1ccc2c3c1O[C@H]1C(=O)CC[C@@]4(O)[C@@H](C2)N(C)CC[C@]314 [oxycodone]
pA2 -Rat Uterus (BK2-receptor [2]; Table I, BK2-receptor activity): inactive
activity in guinea pig ileum assay (mu-opiate receptor): neither oxycodone nor the heterodimers derived from oxycodone (CP-0477 and CP-0488) showed any activity

CN1CC[C@]23c4c5ccc(O)c4O[C@H]2C(=O)CC[C@@]3(O)[C@H]1C5 [oxymorphone]
pA2 -Rat Uterus (BK2-receptor [2]; Table I, BK2-receptor activity): inactive
effect on licking behavior (both phases) in the formalin test ([3]; 50 ul formalin in hind limb foot pad): reduces both phases of the licking behavior
dose at which both phases of the pain response are blocked ([3]; mouse formalin test): 0.9 µmol/kg
narcotic / behavioral effects in the formalin test [3]: significant behavioral obtundation resulting in catalepsy and frank respiratory depression

CC(C)C[C@H](NC(=O)[C@@H](Cc1ccccc1)NC(=O)[C@H](CSC1CC(=O)N(CCCCCCN2C(=O)CC(SCCNC3CC[C@@]4(O)[C@H]5Cc6ccc(O)c7c6[C@@]4(CCN5C)[C@H]3O7)C2=O)C1=O)NC(=O)[C@H](Cc1ccccc1)NC(=O)CNC(=O)[C@@H]1C[C@@H](O)CN1C(=O)[C@@H]1CCCN1C(=O)[C@H](CCCNC(=N)N)NC(=O)[C@H](N)CCCNC(=N)N)C(=O)N[C@@H](CCCNC(=N)N)C(=O)O (stereo partly shown) [CP-0494] (H-[dR]RP[Hyp]GFC(X1)[dF]LR-OH)
narcotic / behavioral effects in the formalin test [3]: no observable narcotic effects
Kb (BK2-receptor [1]): 3.98 nM

COc1ccc2c3c1O[C@H]1C(NCCSC4CC(=O)N(CCCCCCN5C(=O)CC(SC[C@H](NC(=O)[C@H](Cc6ccccc6)NC(=O)CNC(=O)[C@@H]6C[C@@H](O)CN6C(=O)[C@@H]6CCCN6C(=O)[C@H](CCCNC(=N)N)NC(=O)[C@H](N)CCCNC(=N)N)C(=O)N[C@H](Cc6ccccc6)C(=O)N[C@@H](CC(C)C)C(=O)N[C@@H](CCCNC(=N)N)C(=O)O)C5=O)C4=O)CC[C@@]4(O)[C@@H](C2)N(C)CC[C@]314 (stereo partly shown) [CP-0477] (H-[dR]RP[Hyp]GFC(X9)[dF]LR-OH)
Kb (BK2-receptor [1]): 12.6 nM

COc1ccc2c3c1O[C@H]1C(NC(=O)CNC(=O)CCSC4CC(=O)N(CCCCCCN5C(=O)CC(SC[C@H](NC(=O)[C@H](Cc6ccccc6)NC(=O)CNC(=O)[C@@H]6C[C@@H](O)CN6C(=O)[C@@H]6CCCN6C(=O)[C@H](CCCNC(=N)N)NC(=O)[C@H](N)CCCNC(=N)N)C(=O)N[C@H](Cc6ccccc6)C(=O)N[C@@H](CC(C)C)C(=O)N[C@@H](CCCNC(=N)N)C(=O)O)C5=O)C4=O)CC[C@@]4(O)[C@@H](C2)N(C)CC[C@]314 (stereo partly shown) [CP-0488] (H-[dR]RP[Hyp]GFC(X13)[dF]LR-OH)
Kb (BK2-receptor [1]): 6.31 nM

CC(C)C[C@H](NC(=O)[C@@H](Cc1ccccc1)NC(=O)[C@H](CS)NC(=O)[C@H](Cc1ccccc1)NC(=O)CNC(=O)[C@@H]1C[C@@H](O)CN1C(=O)[C@@H]1CCCN1C(=O)[C@H](CCCNC(=N)N)NC(=O)[C@H](N)CCCNC(=N)N)C(=O)N[C@@H](CCCNC(=N)N)C(=O)O [CP-0126, D R-R-P-J-G-F-C-D F-L-R] (HELM PEPTIDE1{[dR].R.P.[Hyp].G.F.C.[dF].L.R}$$$$V2.0)
Ki^ss (HNE) [4, 7]: inactive

CC(C)(C)c1ccc(C(C)(C)C(=O)Oc2ccc(CCCC(=O)O)cc2)cc1 [CE-1218, 4-(3'-carboxy-propyl)phenyl 4-tert-butylphenylisobutyrate]
pA2 -Rat Uterus (BK2-receptor [2]; Table II): inactive
Ki ([4]; Table II, MOS-AAPV-pNA 0.5 mM, pH 7.5, 25 C, read-out: Ki^ss (HNE)): 10.5 nM

COc1ccc2c(c1)c(CC(=O)O)c(C)n2C(=O)c1ccc(Cl)cc1 [indomethacin]
pA2, standard rat uterus assay (BK2-receptor [2]; intact compound): no effect on this assay at any concentration
log dose ratio shift [5]: 0.998+/-0.425

COc1ccc2c(c1)c(CC(=O)OCCCCCCN1C(=O)CC(SC[C@H](NC(=O)[C@H](Cc3ccccc3)NC(=O)CNC(=O)[C@@H]3C[C@@H](O)CN3C(=O)[C@@H]3CCCN3C(=O)[C@H](CCCNC(=N)N)NC(=O)[C@H](N)CCCNC(=N)N)C(=O)N[C@H](Cc3ccccc3)C(=O)N[C@@H](CC(C)C)C(=O)N[C@@H](CCCNC(=N)N)C(=O)O)C1=O)c(C)n2C(=O)c1ccc(Cl)cc1 (stereo partly shown) [CP-0460] (H-[dR]RP[Hyp]GFC(X7)[dF]LR-OH)
Kb (BK2-receptor [1]): ~15.8 nM

CC(C)C[C@H](NC(=O)[C@@H](Cc1ccccc1)NC(=O)[C@H](CSC1CC(=O)N(CCCCCCOC(=O)CCCS(=O)(=O)c2ccc(OC(=O)C(C)(C)c3ccc(C(C)(C)C)cc3)cc2)C1=O)NC(=O)[C@H](Cc1ccccc1)NC(=O)CNC(=O)[C@@H]1C[C@@H](O)CN1C(=O)[C@@H]1CCCN1C(=O)[C@H](CCCNC(=N)N)NC(=O)[C@H](N)CCCNC(=N)N)C(=O)N[C@@H](CCCNC(=N)N)C(=O)O (stereo partly shown) [CP-0502] (H-[dR]RP[Hyp]GFC(X4)[dF]LR-OH)
Ki [4]: 6.6 nM
Kb (BK2-receptor [1]): 31.6 nM
half-life (in vitro; human, plasma (freshly obtained normal human plasma)): ~1.88 h
hydrolysis in human plasma (HPLC) (in vitro; normal human plasma, 37° C., to CP-0487 and its des-Arg9 derivative): readily hydrolyzed

D R-R-P-J-G-F-C-D F-L-R
cleaved bond [6]: Leu8-Arg9
fragment found [6]: CP-0487

CC(C)C[C@H](NC(=O)[C@@H](Cc1ccccc1)NC(=O)[C@H](CSC1CC(=O)N(CCCCCCO)C1=O)NC(=O)[C@H](Cc1ccccc1)NC(=O)CNC(=O)[C@@H]1C[C@@H](O)CN1C(=O)[C@@H]1CCCN1C(=O)[C@H](CCCNC(=N)N)NC(=O)[C@H](N)CCCNC(=N)N)C(=O)N[C@@H](CCCNC(=N)N)C(=O)O (stereo partly shown) [CP-0487] (H-[dR]RP[Hyp]GFC(X20)[dF]LR-OH)
Ki^ss (HNE) [4, 7]: inactive
Kb (BK2-receptor [1]): 3.98 nM
